# Results published in patent US4100276A, “Fusidic acid derivatives” (priority 1975, dated 1978).
# Entries after “also recorded” stand apart in the source; their conditions may differ. Where a name gives a salt, the structure may show the parent alone. Read-outs that look alike come from different tables or passages of the source.
# Assays:
# [1] = system: Streptococcus pyogenes Leo EC; test: In vitro activity, concentration required for 50% inhibition (Table A); type: cell-based; settings: Streptococcus pyogenes, read-out: Concentration required for 50% inhibition (IC50)
# [2] = system: Streptococcus sp. Leo EG2; test: as above; type: cell-based; settings: Streptococcus, read-out: Concentration required for 50% inhibition (IC50)
# [3] = system: Staphylococcus aureus Leo CC178B; test: as above; type: cell-based; settings: Staphylococcus aureus, LEOCC178B, read-out: Concentration required for 50% inhibition (IC50)
# [4] = system: Staph. aureus, Leo CC178H2 (fusidic acid resistant strain); test: as above; type: cell-based; settings: Staphylococcus aureus, read-out: Concentration required for 50% inhibition (IC50)
# [5] = system: Staph. aureus Leo CJ145; test: as above; type: cell-based; settings: Staphylococcus aureus, LEOCJ145, read-out: Concentration required for 50% inhibition (IC50)
# [6] = system: Bacteroides fragilis, Leo JA2; test: as above; type: cell-based; settings: Bacteroides fragilis, LEOJA2, read-out: Concentration required for 50% inhibition (IC50)
# [7] = system: Corynebact. acnes Leo FN; test: as above; type: cell-based, Corynebacterium acnes; settings: Cutibacterium acnes, read-out: Concentration required for 50% inhibition (IC50)
# [8] = system: Streptococcus pyogenes; test: In vitro bactericidal effect, viable counts (Example 44); type: cell-based; settings: 10 μg/ml, NIH broth, 37° C; for Viable count after 0 hr: 0 hr (inoculum)
# Method: In vitro bactericidal effect of 3α,11α-dihydroxy-16β-phenylthiofusida-13(17),24-dien-21-oic acid compared to that of fusidic acid […]
# To two tubes containing NIH broth was added: a. The sodium salt of 3α,11α-dihydroxy-16β-phenylthiofusida-13(17),24-dien-21-oic acid (10 μg/ml) […]
# b. The sodium salt of fusidic acid (10 μg/ml)
# The tubes were inoculated with Streptococcus pyogenes to give 9.2×10^4 organisms per ml, incubated at 37° C, and the viable counts were determined at intervals.
# A third tube was treated similarly without addition of any of the antibiotics and used as a control: […]
# [9] = system: Staphylococcus aureus; test: In vitro effect of combination with dihydro-fusidic acid, viable counts (Example 46); type: cell-based; settings: tubes a, b 10 μg/ml, tube c 5 + 5 μg/ml
# Method: In vitro-effect of the combination of dihydro-fusidic acid and 3α,11α-dihydroxy-16β-phenylthio-fusida-13(17),24-dien-21- oic acid
# To three tubes containing NIH broth was added:
# a. The sodium salt of dihydro-fusidic acid (10 μg/ml).
# b. The sodium salt of 3α,11α-dihydroxy-16-phenylthiofusida-13(17),24-dien-21-oic acid (10 μg/ml).
# c. A mixture of the sodium salts of dihydro-fusidic acid (5 μg/ml) and 3α,11α-dihydroxy-16-phenylthiofusida-13(17),24-dien-21-oic acid (5 μg/ml).
# The tubes were inoculated with Staphylococcus aureus to give 5.2 × 10^5 organisms per ml, incubated at 37° C for 96 hours, and the viable counts were determined.
# (§1) A fourth tube was treated similarly without addition of any of the antibiotics and used as a control: […]
# [10] = system: Staphylococcus aureus; test: In vitro effect of combination with fusidic acid, viable counts (Example 45); type: cell-based; settings: 24 hours; for Viable count: 37° C, fusidic acid 1 μg/ml (tube a), isopropylthio compound 3 μg/ml (tube b), mixture 1 + 3 μg/ml (tube c), inoculum 1.4×10^4; for Resistance of surviving organisms to the compound / development of resistance: fusidic acid 1 μg/ml, isopropylthio compound 3 μg/ml, mixture 1 + 3 μg/ml
# Method: In vitro-effect of the combination of fusidic acid and 3α,11α-dihydroxy-16β-isopropylthio-fusida-13(17),24-dien- 21-oic acid
# To 3 tubes containing NIH broth was added:
# a. The sodium salt of fusidic acid (1 μg/ml).
# b. The sodium salt of 3α,11α-dihydroxy-16-isopropylthiofusida-13(17),24-dien-21-oic acid (3 μg/ml).
# c. A mixture of the sodium salts of fusidic acid (1 μg/ml) and 3α,11α-dihydroxy-16-isopropylthiofusida-13(17),24-dien-21-oic acid (3 μg/ml).
# The tubes were inoculated with Staphylococcus aureus to give 1.4×10^4 organisms per ml, incubated at 37° C for 24 hours, and the viable counts were determined.
# as §1
# [11] = system: Staph. aureus (Leo CC 178B), fusidic acid sensitive strain; test: microbe, parasite or virus in culture; type: cell-based; settings: for IC50: Staphylococcus aureus
# Method: Prevention of development of resistance against fusidic acid as a result of treating Staph. aureus with the sodium salt of 3α,11α-dihydroxy-16β-isopropylthiofusida-13(17),24-dien-21-oic acid
# After a 48 hours pretreatment of a fusidic acid sensitive strain of Staph. aureus (Leo CC 178B) with subinhibitory concentrations of fusidic acid or the compound of Example 9. The sensitivities of the pretreated cultures and of the original strain against the two compounds were determined. The determinations were made by serial dilutions in NIH-broth, inoculum size 2.10^5 organisms/ml, and read as IC50 after 18 and 48 hours.
# [12] = system: Staph. aureus (Leo CC 178B), fusidic acid sensitive strain; test: microbe, parasite or virus in culture; type: cell-based; settings: Staphylococcus aureus, isolates from "Comp. of Ex 8 cult." (48 hours pretreatment)
# [13] = system: bacteria; test: In vitro investigations of antibacterial activity (general statements); type: cell-based
# [14] = Absorption from the gastro-intestinal tract; settings: in vivo
# [15] = 18 h, isolates from control culture, inoculum 2.10^5 organisms/ml, NIH-broth, read-out: IC50, 18 hours
# [16] = 48 h, isolates from control culture, inoculum 2.10^5 organisms/ml, NIH-broth, read-out: IC50, 48 hours
# [17] = isolates from fusidic acid pretreated culture (48 hours pretreatment), read-out: IC50, 18 hours
# [18] = isolates from fusidic acid pretreated culture (48 hours pretreatment), read-out: IC50, 48 hours
Structure (SMILES),IC50 [1],IC50 [2],IC50 [3],IC50 [4],IC50 [5],IC50 [6],IC50 [7],Viable count after 0 hr [8],Viable count after 1.5 hr ([8]; inoculum 9.2×10^4),Viable count after 4 hr ([8]; inoculum 9.2×10^4),Viable count [10],Resistance of surviving organisms to the compound / development of resistance [10],"IC50 [11, 15]","IC50 [11, 16]","IC50 [11, 17]","IC50 [11, 18]","IC50 ([12]; read-out: IC50, 18 hours)","IC50 ([12]; read-out: IC50, 48 hours)",further results
"CC(C)=CCCC(C(=O)O)C1=C2C[C@@H](O)[C@H]3[C@@]4(C)CC[C@@H](O)[C@@H](C)[C@@H]4CC[C@]3(C)[C@@]2(C)C[C@@H]1Sc1ccccc1 (stereo partly drawn) [Example 1, 3α,11α-Dihydroxy-16β -phenylthiofusida-13(17), 24-dien-21-oic acid sodium salt]",0.5 µg/mL,1.6 µg/mL,1.6 µg/mL,1.6 µg/mL,3.2 µg/mL,20 µg/mL,0.5 µg/mL,9.2 × 10^4 organisms per ml,1.4 × 10^4 organisms per ml,5.7 × 10^2 organisms per ml,–,–,–,–,–,–,–,–,"Viable counts after 6 1/2 hours ([9]; 37° C, inoculum 5.2 × 10^5): 1.1 × 10^4 organisms per ml; Viable counts after 2 hours ([9]; 37° C, inoculum 5.2 × 10^5): 5.2 × 10^4 organisms per ml; Viable counts after 24 hours ([9]; 37° C, inoculum 5.2 × 10^5): 3.1 × 10^6 organisms per ml; Resistance of surviving organisms to the compound / development of resistance ([9]; 96 hours): resistant to 3α,11α-dihydroxy-16β-phenylthio-fusida-13(17),24-dien-21- oic acid"
"CC(C)=CCCC(C(=O)O)C1=C2C[C@@H](O)[C@H]3[C@@]4(C)CC[C@@H](O)[C@@H](C)[C@@H]4CC[C@]3(C)[C@@]2(C)C[C@@H]1SC(C)C (stereo partly drawn) [Example 9, 3α,11α-dihydroxy-16β-isopropylthiofusida-13(17), 24-dien-21-oic acid sodium salt]",–,–,–,–,–,–,–,–,–,–,1.5 × 10^6 organisms per ml,"resistant to 3α,11α-dihydroxy-16β-isopropylthio-fusida-13(17),24-dien- 21-oic acid",2 µg/mL,5 µg/mL,1.6 µg/mL,5 µg/mL,5 µg/mL,16 µg/mL,"Emergence of resistance against fusidic acid / change of sensitivity after pretreatment ([11]; 48 hours pretreatment with subinhibitory concentrations, sodium salt): Only a slight decrease of the sensitivity; also recorded: totally prohibited the emergence of resistance against fusidic acid"
CC(=O)O[C@H]1C[C@@]2(C)[C@@H](C[C@@H](O)[C@H]3[C@@]4(C)CC[C@@H](O)[C@@H](C)[C@@H]4CC[C@@]32C)/C1=C(\CCC=C(C)C)C(=O)O [Fusidic acid],0.63 µg/mL,1.6 µg/mL,0.025 µg/mL,32 µg/mL,16 µg/mL,1.6 µg/mL,0.2 µg/mL,–,–,–,–,resistant to fusidic acid,0.016 µg/mL,1 µg/mL,7.9 µg/mL,50 µg/mL,0.016 µg/mL,0.02 µg/mL,"Antibacterial effect, bactericidal/bacteriostatic (in words) [13]: solely bacteriostatic; Absorption from the gastro-intestinal tract (in words) [14]: absorbed efficiently from the gastro-intestinal tract"
CC(=O)O[C@H]1C[C@@]2(C)[C@@H](C[C@@H](O)[C@H]3[C@@]4(C)CC[C@@H](O)[C@@H](C)[C@@H]4CC[C@@]32C)/C1=C(\CCC=C(C)C)C(=O)O [sodium salt of fusidic acid],–,–,–,–,–,–,–,9.2 × 10^4 organisms per ml,1.2 × 10^5 organisms per ml,1.5 × 10^5 organisms per ml,1.8 × 10^8 organisms per ml,–,–,–,–,–,–,–,Viable count after 7 hr ([8]; inoculum 9.2×10^4): 1.3 × 10^5 organisms per ml
